Legend:
mouse serum = test: ELISA of mouse serum (cytokines); assay type: in vivo; details: compared with real-time PCR results; FIG. 6e
Description: (§1) Mice were fed with 3 g/kg of ethanol together with a normal diet every day for 2 weeks. In this regard, Group 1 (E+Veh) was fed with vehicle, and Group 2 (E+GF2) was fed with ginsenoside F2.
(§2) Further, the isolated monocytes were subjected to real-time PCR. As a result, expression of the inflammatory cytokines TNF-α, IL-6, and IL-17 increased by alcohol was inhibited by ginsenoside F2, and expression of anti-inflammatory cytokine IL-10 was increased thereby (FIG. 6d). These effects are consistent with the results of ELISA of mouse serum (FIG. 6e).

male mice = test: Measurement of serum ALT, AST, TG and total cholesterol levels in ethanol-fed mice; assay type: in vivo; details: 50 mg/kg oral with 3 g/kg ethanol daily for 2 weeks
Procedure: (§3) 50 mg/kg of ginsenoside F2 (indicated by GF2 in Drawing) dissolved in 3 g/kg of ethanol, together with a normal diet, were orally administered to 8-week-old male mice (weighing 25 g to 28 g) between 3 PM and 4 PM every day for 2 weeks. After 2 weeks, they were sacrificed, and the following experiment was performed.
Blood was collected from mouse abdominal aorta and centrifuged using a centrifuge at 3,300 rpm for 10 minutes to separate only the serum. The levels of ALT (alanine aminotransferase) and AST ([…]) in the serum were measured using a kit of IDEXX Laboratories (USA) in accordance with the manufacturer's instructions by VetTEST (IDEXX, USA). Further, 50 mg of the hepatic tissue was excised and ground, and then a chloroform-methanol (2:1) solution was added thereto, followed by centrifugation. The lipid components contained in the hepatic tissue were extracted, and the levels of triglyceride (TG) and total cholesterol in the extract solution were measured using a kit of IDEXX Laboratories (USA) in accordance with the manufacturer's instructions by VetTEST.

[1] = tested on: hepatic stellate cells separated from mouse liver; test: Lipogenesis-related index in hepatic stellate cells separated from mouse liver; assay type: in vivo; details: EtOH+GF2 vs EtOH+Vehicle; FIG. 4b
Procedure: as §3

[2] = tested on: IL-10-deficient male mice; test: IL-10-deficient mice: serum levels and necrotic foci of liver tissue; assay type: in vivo; details: 50 mg/kg oral with 3 g/kg ethanol daily for 2 weeks
Procedure: (§4) 8-week-old IL-10-deficient male mice (weighing 25 g to 28 g) were orally administered with 3 g/kg ethanol and 50 mg/kg ginsenoside F2, together with a normal diet, every day for 2 weeks (E+GF2). A control group was fed with an equal amount of ethanol and vehicle instead of ginsenoside F2 (E+Veh). 2 weeks later, the sera, liver tissues, and hepatic monocytes were obtained from the mice by autopsy. Thereafter, in the same manner as in Example 1. (1), the serum ALT, AST, TG, and cholesterol levels were measured, and necrotic foci were examined in the liver tissue to count the number of necrotic foci in two sections of the liver. In the hepatic monocytes, macrophage and neutrophil expression levels were examined by flow cytometry using F4/80 or Gr1 antigen marker.

liver tissue = test: Liver histological analysis (H&E, TUNEL, Oil-red O staining); assay type: in vivo, mice; details: 50 mg/kg oral with 3 g/kg ethanol, 2 weeks
hepatic monocytes = test: IL-10-deficient mice: hepatic monocytes (flow cytometry, real-time PCR); assay type: in vivo
Procedure: as §4

co-cultured hepatocytes = test: Co-culture with ethanol: co-cultured hepatocytes (Western blotting, real-time PCR); assay type: cell-based, mice; details: 100 mM ethanol 12 hours, then 30 μM for 6 or 12 hours
Procedure: (§5) During the culture, they were treated with 100 mM ethanol for 12 hours, and then 30 μM ginsenoside F2 for 6 hours or 12 hours.

[3] = tested on: co-cultured hepatic stellate cells; test: Co-culture with ethanol: co-cultured hepatic stellate cells; assay type: cell-based, mice; details: 100 mM ethanol 12 hours, then 30 μM for 6 or 12 hours; FIG. 5d
Procedure: as §5

[4] = tested on: hepatocytes separated from mouse liver; test: Lipogenesis-related index in hepatocytes separated from mouse liver; assay type: in vivo; details: EtOH+GF2 vs EtOH+Vehicle; FIG. 4a
Procedure: as §3

[5] = tested on: breast cancer stem cells (CSCs); details: Mai T T et al. 2012; cited from earlier work
Naive T cells = test: Differentiation of naive T cells into IL-17-producing Th17 cells; assay type: cell-based, mice; details: 0 μM to 30 μM
Procedure: Naive T cells were isolated from mice, and treated with 5 ng/mL TGF-β1 and 20 ng/mL IL-6, and then cultured in a CD3/28 antibody-coated dish for 3.5 days to differentiate the cells into proinflammatory Th17 cells (T helper 17 cells). In this regard, the cells were also treated with ginsenoside F2 by varying its concentration (0 μM to 30 μM), and markers for Th17 cells were examined, and the results are shown in FIGS. 7a to 7c. N represents naive T cells treated with none of TGF-β1, IL-6, and ginsenoside F2.

glioblastoma = details: xenograft model in SD rats; Shin J Y et. al. 2012; cited from earlier work
Hepatic stellate cells = Hepatic stellate cells treated with TO901317 (real-time PCR and Western blotting); assay type: cell-based; details: 30 μM, 30 minutes later 10 μM TO901317, culture 12 hours
Procedure: Hepatic stellate cells were treated with 30 μM of ginsenoside F2, and 30 minutes later, further treated with 10 μM TO901317, followed by culture for 12 hours. FIGS. 5f and 5g show the results of real-time PCR and Western blotting of the cultured hepatic stellate cells.

[6] = tested on: monocytes isolated from the liver; test: Flow cytometry of monocytes / inflammatory cells isolated from the liver of ethanol-fed mice; assay type: in vivo; details: 3 g/kg ethanol daily for 2 weeks
Procedure: as §1
Thereafter, monocytes were isolated from the liver, and stained with the macrophage markers, CD11b and F4/80, followed by flow cytometry. As a result, treatment of ginsenoside F2 reduced a percentage of macrophage (FIG. 6a). Flow cytometry was also performed using the neutrophil markers CD11b and Gr-1. As a result, treatment of ginsenoside F2 reduced a percentage of neutrophil (FIG. 6b).
Further, inflammatory cells in the liver were stained with regulatory T cell (Treg) markers, CD4, CD25, and Foxp3. As a result, treatment of ginsenoside F2 increased regulatory T cells, and decreased Th17 cells (IL-17 and CD4 positive) which are one of proinflammatory cells.

isolated monocytes = test: Real-time PCR of isolated hepatic monocytes of ethanol-fed mice; assay type: in vivo; details: FIG. 6d
Description: as §1, §2

liver tissues = test: Western blotting of proteins extracted from the liver tissues; assay type: in vivo, mice; details: FIG. 4c
Procedure: as §3
Expression of fat oxidation-inducing pAMPK was increased and expression of lipogenic SREBP1c and FAS was reduced by administration of ginsenoside F2.

[7] = tested on: human hepatocyte cell line HepG2A; test: LXR-mediated fat synthesis in HepG2A (real-time PCR); assay type: cell-based
Procedure: To examine a fat synthesis inhibition mechanism of ginsenoside F2, human hepatocyte cell line HepG2A was treated with 30 μM ginsenoside F2, and 30 minutes later, further treated with 10 μM TO901317, which induces fat synthesis as an LXR agonist stimulating fatty acid synthesis, followed by culture for 9 hours.
Further, HepG2A was treated with ginsenoside F2 by varying its concentration from 0 μM to 100 μM, and cultured for 12 hours.

[8] = 50 mg/kg, 2 weeks, flow cytometry, FIGS. 8d and 8e
[9] = real-time PCR using monocytes, FIG. 8h
[10] = 5 ng/mL TGF-β1 and 20 ng/mL IL-6, 3.5 days, FIGS. 7a and 7b
[11] = 0 μM to 100 μM, cultured for 12 hours, FIG. 5f
[12] = 30 μM, 30 minutes later 10 μM TO901317, culture 9 hours, real-time PCR, FIG. 5e

CC(C)=CCC[C@](C)(O[C@@H]1O[C@H](CO)[C@@H](O)[C@H](O)[C@H]1O)[C@H]1CC[C@]2(C)[C@@H]1[C@H](O)C[C@@H]1[C@@]3(C)CC[C@H](O[C@@H]4O[C@H](CO)[C@@H](O)[C@H](O)[C@H]4O)C(C)(C)[C@@H]3CC[C@]12C [ginsenoside F2]
cytokine effects (TNF-α, IL-6, IL-17, IL-10) by ELISA of mouse serum (mouse serum): consistent
total cholesterol level increased by alcohol (male mice; FIG. 2): reduced
liver injury index ALT level (male mice; FIG. 2(a)): did not significantly increase
AST level (male mice; FIG. 2(b)): lower
fatty liver index, TG level (male mice; FIG. 2(c)): reduced to the normal level
expression of DAGL-α,β [1]: significantly reduced
fatty acid amide hydrolase (FAAH) expression [1]: significantly increased
ALT level ([2]; FIG. 8a): no significant effects
TG level ([2]; FIG. 8a): no significant effects
cholesterol level ([2]; FIG. 8a): no significant effects
necrotic foci of the liver tissue ([2]; FIGS. 8b and 8c): no great changes
Triglyceride accumulation (Oil-red O staining) (liver tissue; FIG. 3a): reduced
cell damage (TUNEL staining) (liver tissue; FIG. 3a): reduced
ethanol-induced inflammation (H&E staining) (liver tissue; FIG. 3a): reduced
TUNEL-positive cell death caused by alcohol administration (statistical analysis) (liver tissue; FIG. 3b): remarkably reduced
triglycerides in the liver tissue (statistical analysis) (liver tissue; FIG. 3c): remarkably reduced
other immune cells (hepatic monocytes; 50 mg/kg, 2 weeks, FIG. 8f): no significant effects
CD4+CD25+Foxp3+ regulatory T cells (hepatic monocytes; 50 mg/kg, 2 weeks, FIG. 8g): increased
expression of macrophage (F4/80) (hepatic monocytes; [8]): no significant effects
expression of neutrophil (Gr1) (hepatic monocytes; [8]): no significant effects
expression of Foxp3 (hepatic monocytes; [9]): increased
expression of inflammatory cytokine IL-6 (hepatic monocytes; [9]): increased
expression of inflammatory cytokine IL-17 (hepatic monocytes; [9]): increased
expression of lipogenic FAS (co-cultured hepatocytes; Western blotting, FIG. 5b): decreased
expression of lipogenic SREBP1c (co-cultured hepatocytes; Western blotting, FIG. 5b): decreased
expression of lipolytic pAMPK (co-cultured hepatocytes; Western blotting, FIG. 5b): increased
expression of CB1R (co-cultured hepatocytes; real-time PCR, FIG. 5c): reduced
expression of FAS (co-cultured hepatocytes; real-time PCR, FIG. 5c): reduced
expression of SREBP1c (co-cultured hepatocytes; real-time PCR, FIG. 5c): reduced
expression of DAGL-α,β [3]: reduced
expression of ADH1 [4]: significantly reduced
expression of CB1R [4]: significantly reduced
expression of CYP2e1 [4]: significantly reduced
expression of FAS [4]: significantly reduced
expression of SREBP1c [4]: significantly reduced
cell apoptosis in breast cancer stem cells [5]: induces cell apoptosis accompanied by autophagy
IL-17-expressing Th17 cells (FACS) (Naive T cells; [10]): decreased
anti-inflammatory cytokine IL-10 (FACS) (Naive T cells; [10]): increased
Th17 cell-specific transcription factor RORγt (Naive T cells; real-time PCR, FIG. 7c): decreased
Th17 cell-specific transcription factor STAT3 (Naive T cells; real-time PCR, FIG. 7c): decreased
expression of Abca1 (Naive T cells; real-time PCR, FIG. 7c): decreased
anti-cancer effects on glioblastoma (glioblastoma): exhibits anti-cancer effects
expression of glutamate receptor mGluR1 or 5 (Hepatic stellate cells): significantly increased
Th17 cells (IL-17 and CD4 positive) ([6]; E+GF2 vs E+Veh): decreased
regulatory T cells (CD4, CD25, Foxp3) ([6]; E+GF2 vs E+Veh): increased
percentage of macrophage (CD11b, F4/80) ([6]; E+GF2 vs E+Veh, FIG. 6a): reduced
percentage of neutrophil (CD11b, Gr-1) ([6]; E+GF2 vs E+Veh, FIG. 6b): reduced
percentage of CD4 T cells ([6]; FIG. 6c): no significant effects
percentage of CD8 T cells ([6]; FIG. 6c): no significant effects
percentage of NK cells ([6]; FIG. 6c): no significant effects
percentage of NKT cells ([6]; FIG. 6c): no significant effects
expression of anti-inflammatory cytokine IL-10 (isolated monocytes): increased
expression of inflammatory cytokine IL-6 increased by alcohol (isolated monocytes): inhibited
expression of inflammatory cytokine IL-17 increased by alcohol (isolated monocytes): inhibited
expression of inflammatory cytokine TNF-α increased by alcohol (isolated monocytes): inhibited
Expression of fat oxidation-inducing pAMPK (liver tissues): increased
expression of lipogenic FAS (liver tissues): reduced
expression of lipogenic SREBP1c (liver tissues): reduced
concentration at which an excellent inhibitory effect on SREBP1c and FAS expression was observed [7, 11]: ≥ 40 µM
expression of FAS [7, 11]: reduced
expression of SREBP1c [7, 11]: reduced
expression of FAS increased by LXR agonist TO901317 [7, 12]: inhibit
expression of SREBP1c increased by LXR agonist TO901317 [7, 12]: inhibit

Source: US20160067270A1, “USE OF GINSENOSIDE F2 FOR PROPHYLAXIS AND TREATMENT OF LIVER DISEASE” (priority 2014, published 2016)
